TGI data for 16 compounds are collected here from PubChem BioAssay (NCI).

Molecules are shown by their SMILES.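 Interpolation was linear, between the two tested concentrations surrounding the appropriate level; five concentrations were tested over 48 hours in 96-well plates. The concentration for full growth arrest is given as TGI.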

Holding throughout (experiment): DTP human tumour cell line panel, 48 h
Experiment [1] deals with SW-620 colon.
Experiment [2] concerns SK-MEL-28 melanoma.
The test system of experiment [3] is SNB-75 CNS.
The test system of experiment [4] is NCI-H522 lung.
Experiment [5] deals with UO-31 renal.
Experiment [6] has as its system U251 CNS.
The test system of experiment [7] is A498 renal.
Experiment [8] relates to UACC-62 melanoma.
Experiment [9] relates to RPMI-8226 leukemia.

The TGI is the concentration at which net growth stops. A high value points to lower sensitivity of the cells.

Regarding `CN(C)NC1=C([N+](=O)[O-])C=NN(c2ccccc2)C1`, the TGI in [1] is 3.67 µM; in experiment [2] it was 3.21 µM; in experiment [3], 3.34 µM; in experiment [4], 0.343 µM; in experiment [5], 3.19 µM; in experiment [6] it was 3.17 µM. For the same compound, the total growth inhibition concentration (TGI) turned out to be 36 µM in [7] and 3.14 µM in experiment [8].

With `N#C/C(=C\c1c(O)cc(O)cc1O)C(N)=O`, the concentration for total growth inhibition (TGI) in experiment [1], in experiment [2], in experiment [3], in experiment [9], in experiment [4] and in experiment [5] was greater than 100 µM in each case. In addition, the TGI in experiment [6] and in experiment [7] was greater than 100 µM each time.

On to `CCC12C=CCN(CCc3c([nH]c4ccccc34)/C=C\1)C2` (configuration not stated), for which the TGI in [1], in [3], in experiment [9], in [4], in [5] and in [6] was greater than 100 µM in each case. In addition, the TGI in experiment [7] and in experiment [8] was greater than 100 µM throughout.

As for `O=C(O)c1ccc2c(c1)C(=O)N(c1ccc(S(=O)(=O)c3ccc(N4C(=O)c5ccc(C(=O)O)cc5C4=O)cc3)cc1)C2=O`, the total growth inhibition concentration (TGI) in experiment [1], in experiment [2], in experiment [3], in experiment [9], in experiment [4] and in experiment [5] was greater than 100 µM each time. Besides, the TGI in experiment [6], in experiment [7] and in experiment [8] was greater than 100 µM in each case.

Consider `COC(=O)c1c(O)ccc(O)c1C(C(C)=O)C(C)=O`, for which the TGI in [1], in [2], in [3], in experiment [9], in [4] and in experiment [5] was greater than 100 µM throughout. For the same compound, the TGI in [6], in experiment [7] and in experiment [8] was greater than 100 µM in each case.

Consider `Cc1ccc2c(c1)-c1c3c(nn1C)-c1ccccc1SC3O2` (configuration not stated), for which the TGI in experiment [1] was greater than 100 µM; in [2], greater than 100 µM; in experiment [3], greater than 100 µM; in experiment [9], greater than 100 µM; in experiment [4], greater than 100 µM; in experiment [5], 88.7 µM. Also, the total growth inhibition concentration (TGI) in experiment [6] and in experiment [7] was greater than 100 µM throughout.

As for `O=C(/C=C/c1ccc(Cl)c(Cl)c1)c1ccccc1Cl`, the TGI is 9.16 µM in experiment [1]; 22.5 µM in experiment [2]; 27.5 µM in [3]; greater than 29.1 µM in [9]; 24.1 µM in experiment [4]; 27.8 µM in experiment [5]. Further, the TGI in experiment [6] was found to be 10.3 µM; in experiment [7], 31.4 µM; in [8], 25.5 µM.

For `Cc1ccccc1NC(=O)/C(=N\NC(N)=S)C(C#N)c1ccccc1` (configuration not stated), the TGI in [1], in experiment [2], in [3], in experiment [9], in experiment [4] and in experiment [5] was greater than 100 µM throughout. In addition, the TGI in experiment [6], in experiment [7] and in experiment [8] was greater than 100 µM in each case.

As for `Cc1cccc(C)c1NC(=O)CCC(=O)NC(N)=NC#N`, the TGI in [1], in experiment [2], in experiment [3], in experiment [9], in experiment [4] and in experiment [5] was greater than 100 µM throughout. For the same compound, the TGI in [6], in experiment [7] and in experiment [8] was greater than 100 µM throughout.

Consider `CCOC(=O)C1=C(C)NC(=O)NC1c1ccc(OC)cc1OC` (configuration not stated), for which the total growth inhibition concentration (TGI) in experiment [1], in [3], in experiment [9], in [4], in experiment [5] and in experiment [6] was greater than 100 µM each time. The TGI in experiment [7] and in experiment [8] was greater than 100 µM in each case.

Regarding `Nc1cccc2c1-c1c(cccc1[N+](=O)[O-])C2=O`, the TGI is greater than 100 µM in [1]; greater than 100 µM in experiment [3]; greater than 100 µM in [9]; greater than 100 µM in experiment [4]; 0.469 µM in [5]; greater than 100 µM in [6]. Further, the TGI in [7] and in experiment [8] was greater than 100 µM each time.

As to `O=c1nc2sc3ccccc3c(=O)n2[nH]1`, the TGI in [1], in [2], in experiment [3], in experiment [9], in experiment [5] and in [6] was greater than 100 µM throughout. In experiment [8], this compound registered a TGI greater than 100 µM.

With `CC(=O)OCC1OC(n2cccnc2=O)C(OC(C)=O)C1OC(C)=O` (configuration not stated), the TGI in [1], in experiment [2], in experiment [3], in experiment [9], in [4] and in [5] was greater than 100 µM in each case. In addition, the TGI in experiment [6], in experiment [7] and in [8] was greater than 100 µM in each case.

Take `CC1(C)C(=O)OC(n2cc(F)c(=O)[nH]c2=O)C1=O` (configuration not stated): the TGI in experiment [1], in [2], in experiment [3], in [9], in experiment [4] and in experiment [5] was greater than 100 µM in each case. Besides, the TGI in [6], in [7] and in experiment [8] was greater than 100 µM throughout.

Take `Cc1ccc(S(=O)(=O)OCOS(=O)(=O)c2ccc(C)cc2)cc1`: the TGI in [1], in experiment [2], in experiment [9], in experiment [4], in experiment [5] and in experiment [6] was greater than 100 µM throughout.

`N#Cc1c2ccccc2c(Cc2ccc3c(c2)OCCOCCOCCOCCOCCO3)c2ccccc12`: the TGI in [1] was 32.1 µM; in [2], 19.4 µM; in experiment [9], greater than 100 µM; in [4] it was 31.9 µM; in experiment [5], 15.4 µM; in experiment [6] it was 26.2 µM. The TGI came out at 27.6 µM in experiment [7] and 19.8 µM in experiment [8].
